{"source": "PubChem BioAssay AID328", "about": "(DTP/NCI, 2004)", "test_system": "BDF1 mice, P388 leukemia ip, median survival T/C", "experiment": "NCI In Vivo Anticancer Drug Screen. Data for tumor model P388 Leukemia (intraperitoneal) in B6D2F1 (BDF1) mice", "settings": "endpoint: median survival time, higher = longer survival", "method_in_brief": "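Antitumour effect was judged in vivo: survival in drug-treated mice, normalised to that of vehicle-dosed controls, gives the reported T/C.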", "key": {"[1]": {"settings": "dose: 50.0 mg/kg/injection, schedule: Q01DX009 (ip), vehicle: saline with Tween-80"}, "[2]": {"settings": "dose: 100.0 mg/kg/injection, schedule: Q01DX009 (ip), vehicle: saline with Tween-80"}, "[3]": {"settings": "dose: 200.0 mg/kg/injection, schedule: Q01DX009 (ip), vehicle: saline with Tween-80"}, "[4]": {"settings": "dose: 50.0 mg/kg/injection, schedule: Q04DX003 (ip), vehicle: saline with Tween-80"}, "[5]": {"settings": "dose: 100.0 mg/kg/injection, schedule: Q04DX003 (ip), vehicle: saline with Tween-80"}}, "note": "Several values for one entry are separate records, joined by “and”; a condition that tells them apart may be missing. Identical values can stand only once. Toxic doses and inconclusive results are not listed."}
{"smiles": "COc1cc2cc(c1Cl)N(C)C(=O)CC(OC(=O)C(F)(F)F)C1(C)OC1C(C)C1CC(O)(NC(=O)O1)C(OC)C=C/C=C(\\C)C2", "note": "(centres undefined)", "values": [{"measurement": "T/C", "setting": "dose: 0.8 micrograms/kg/injection, schedule: Q01DX009 (ip), vehicle: saline + alcohol", "value": "110 % of control"}, {"measurement": "T/C", "setting": "dose: 1.5 micrograms/kg/injection, schedule: Q01DX009 (ip), vehicle: saline + alcohol", "value": "100 % of control"}, {"measurement": "T/C", "setting": "dose: 1.8 micrograms/kg/injection, schedule: Q01DX009 (ip), vehicle: saline + alcohol", "value": "107 % of control"}, {"measurement": "T/C", "setting": "dose: 3.1 micrograms/kg/injection, schedule: Q01DX009 (ip), vehicle: saline + alcohol", "value": "98 % of control and 100 % of control"}, {"measurement": "T/C", "setting": "dose: 6.2 micrograms/kg/injection, schedule: Q01DX009 (ip), vehicle: saline + alcohol", "value": "98 % of control and 108 % of control"}, {"measurement": "T/C", "setting": "dose: 12.5 micrograms/kg/injection, schedule: Q01DX009 (ip), vehicle: saline + alcohol", "value": "96 % of control and 120 % of control"}, {"measurement": "T/C", "setting": "dose: 25.0 micrograms/kg/injection, schedule: Q01DX009 (ip), vehicle: saline + alcohol", "value": "96 % of control"}, {"measurement": "T/C", "setting": "dose: 50.0 micrograms/kg/injection, schedule: Q01DX009 (ip), vehicle: saline + alcohol", "value": "107 % of control"}, {"measurement": "T/C", "setting": "dose: 100.0 micrograms/kg/injection, schedule: Q01DX009 (ip), vehicle: saline + alcohol", "value": "91 % of control and 108 % of control"}, {"measurement": "T/C", "setting": "dose: 200.0 micrograms/kg/injection, schedule: Q01DX009 (ip), vehicle: saline + alcohol", "value": "91 % of control"}, {"measurement": "T/C", "setting": "dose: 400.0 micrograms/kg/injection, schedule: Q01DX009 (ip), vehicle: saline + alcohol", "value": "117 % of control"}]}
{"smiles": "CN=C(NC(C)C)c1ccc(NC(=O)c2ccc(C(=O)Nc3ccc(C(=NC)NC(C)C)cc3)cc2)cc1", "values": [{"measurement": "T/C", "setting": "dose: 16.0 mg/kg/injection, schedule: Q04DX003 (ip), vehicle: saline with Tween-80", "value": "118 % of control"}, {"measurement": "T/C", "setting": "dose: 42.2 mg/kg/injection, schedule: Q04DX003 (ip), vehicle: saline with Tween-80", "value": "150 % of control"}, {"measurement": "T/C", "setting": "dose: 64.0 mg/kg/injection, schedule: Q04DX003 (ip), vehicle: saline with Tween-80", "value": "150 % of control"}, {"measurement": "T/C", "setting": "dose: 96.0 mg/kg/injection, schedule: Q04DX003 (ip), vehicle: saline with Tween-80", "value": "150 % of control"}]}
{"smiles": "C=C1C(=O)OC2C1CC/C(C)=C/CCC1(C)OC21", "note": "(centres undefined)", "values": [{"measurement": "T/C", "setting": "dose: 70.0 mg/kg/injection, schedule: Q01DX009 (ip), vehicle: Klucel (hydroxypropylcellulose) (HPC)", "value": "116 % of control"}]}
{"smiles": "O=C1CC(SC(=S)C2CCCC2=O)C(=O)N1", "note": "(centres undefined)", "values": [{"measurement": "T/C", "setting": "[1]", "value": "100 % of control"}, {"measurement": "T/C", "setting": "[2]", "value": "110 % of control"}, {"measurement": "T/C", "setting": "[3]", "value": "89 % of control"}]}
{"smiles": "O=C(O)c1cc(N=Nc2ccccc2)ccc1O", "values": [{"measurement": "T/C", "setting": "[4]", "value": "104 % of control"}, {"measurement": "T/C", "setting": "[5]", "value": "100 % of control"}]}
{"smiles": "OC(Nc1nccs1)C(Cl)(Cl)Cl", "note": "(centres undefined)", "values": [{"measurement": "T/C", "setting": "[1]", "value": "104 % of control"}, {"measurement": "T/C", "setting": "[2]", "value": "110 % of control"}, {"measurement": "T/C", "setting": "[3]", "value": "94 % of control"}]}
{"smiles": "CC(=O)[S][Pb]([c]1ccccc1)([c]1ccccc1)[c]1ccccc1", "values": [{"measurement": "T/C", "setting": "dose: 4.0 mg/kg/injection, schedule: Q01DX009 (ip), vehicle: Klucel (hydroxypropylcellulose) (HPC)", "value": "114 % of control"}, {"measurement": "T/C", "setting": "dose: 5.9 mg/kg/injection, schedule: Q01DX009 (ip), vehicle: Klucel (hydroxypropylcellulose) (HPC)", "value": "110 % of control"}, {"measurement": "T/C", "setting": "dose: 9.0 mg/kg/injection, schedule: Q01DX009 (ip), vehicle: Klucel (hydroxypropylcellulose) (HPC)", "value": "106 % of control"}]}
{"smiles": "CCCN(CCC)CCC#N", "values": [{"measurement": "T/C", "setting": "[4]", "value": "104 % of control"}, {"measurement": "T/C", "setting": "[5]", "value": "100 % of control"}, {"measurement": "T/C", "setting": "dose: 200.0 mg/kg/injection, schedule: Q04DX003 (ip), vehicle: saline with Tween-80", "value": "90 % of control"}]}
{"smiles": "C1CC[N-]CC1.C1CC[N-]CC1.C1CC[N-]CC1.C1CC[N-]CC1.CC(=N\\[O-])/C(C)=N/O.CC(=N\\[O-])/C(C)=N/O.[Cl-].[Cl-].[Cl][Rh][Cl].[Rh+3]", "values": [{"measurement": "T/C", "setting": "dose: 50.0 mg/kg/injection, schedule: Q01DX009 (ip), vehicle: saline", "value": "98 % of control"}, {"measurement": "T/C", "setting": "dose: 100.0 mg/kg/injection, schedule: Q01DX009 (ip), vehicle: saline", "value": "86 % of control"}, {"measurement": "T/C", "setting": "dose: 200.0 mg/kg/injection, schedule: Q01DX009 (ip), vehicle: saline", "value": "86 % of control"}, {"measurement": "T/C", "setting": "dose: 400.0 mg/kg/injection, schedule: Q01DX009 (ip), vehicle: saline", "value": "95 % of control"}]}
{"smiles": "CCOC(=O)Cc1csc(NNC(=O)c2ccccc2)n1", "values": [{"measurement": "T/C", "setting": "[1]", "value": "108 % of control"}, {"measurement": "T/C", "setting": "[2]", "value": "99 % of control"}, {"measurement": "T/C", "setting": "[3]", "value": "101 % of control"}]}
{"smiles": "CCC/C(=N\\Nc1ccc([N+](=O)[O-])cc1[N+](=O)[O-])c1ccccc1", "values": [{"measurement": "T/C", "setting": "dose: 25.0 mg/kg/injection, schedule: Q04DX003 (ip), vehicle: saline with Tween-80", "value": "90 % of control"}, {"measurement": "T/C", "setting": "[4]", "value": "100 % of control"}, {"measurement": "T/C", "setting": "[5]", "value": "109 % of control"}]}
{"smiles": "C[n+]1ccccc1/C=C/c1cccc(O)c1", "values": [{"measurement": "T/C", "setting": "dose: 3.12 mg/kg/injection, schedule: Q01DX009 (ip), vehicle: Klucel (hydroxypropylcellulose) (HPC)", "value": "96 % of control"}, {"measurement": "T/C", "setting": "dose: 6.25 mg/kg/injection, schedule: Q01DX009 (ip), vehicle: Klucel (hydroxypropylcellulose) (HPC)", "value": "96 % of control"}, {"measurement": "T/C", "setting": "dose: 12.5 mg/kg/injection, schedule: Q01DX009 (ip), vehicle: Klucel (hydroxypropylcellulose) (HPC)", "value": "102 % of control"}, {"measurement": "T/C", "setting": "dose: 25.0 mg/kg/injection, schedule: Q01DX009 (ip), vehicle: Klucel (hydroxypropylcellulose) (HPC)", "value": "102 % of control"}]}
